Laboratory results reported in PMC4698308, “A new amino acid substitution (Ala-205-Phe) in acetolactate synthase (ALS) confers broad spectrum resistance to ALS-inhibiting herbicides” (Planta, 2015).
Where two headings read alike, the source gives them in different places.

Legend:
[1] = test system: annual bluegrass (Poa annua L.); experiment: Whole plant non-target site resistance experiment with P450 inhibitors malathion or PBO (control 21 days after treatment); assay type: in vivo; conditions: for Annual bluegrass control S: susceptible (S)
Experimental: Additional experiments were conducted during March–April 2015 to determine if non-target site based mechanisms conferred resistance to ALS inhibitors in our annual bluegrass population, POAAN-R3. Plants (RP6, RP7, and S) were cultured in plastic conical containers as previously described and allowed to acclimate to the glasshouse for 18 days prior to initiating two experiments.
In the first experiment, resistant (RP6, RP7) and susceptible (S) plants were treated with foramsulfuron at 29 g ha^−1, trifloxysulfuron (Monument. Syngenta Professional Products. Greensboro, NC, USA) at 27.8 g ha^−1, imazaquin (Image. BASF Corporation. Research Triangle Park, NC) at 27.5 g ha^−1, or bispyribac-sodium (Velocity. Valent USA Corporation. Walnut Creek, CA, USA) at 70 g ha^−1. All herbicides were applied alone or in combination with either malathion (Spectrum Group. St. Louis, MO, USA) at 1000 g ha^−1 or piperonyl butoxide (Sigma Aldrich. St. Louis, MO, USA) at 2100 g ha^−1. Malathion and piperonyl butoxide (PBO) inhibit cytochrome P450 monooxygenases involved in metabolism of ALS inhibiting herbicides and are commonly used at the application rates tested herein to evaluate non-target site based resistance mechanisms in weeds (Burnet et al. [1994]; Christopher et al. [1992]; Yu and Powles [2014b]; Rao et al. [1995]). All herbicides were mixed in water carrier and included non-ionic surfactant at 0.25 % v/v. Malathion and PBO were mixed with methanol and de-ionized water (50:50) and applied 60 min prior to herbicide application using a previously described enclosed spray chamber on 13 February 2015.
Annual bluegrass control was visually assessed on a 0 (i.e., no control) to 100 % (i.e., complete kill) scale relative to the non-treated 21 days after treatment. After all control data had been collected, aboveground biomass was harvested from each plastic conical container at the soil line using scissors, dried at 100 °C, and weighed. Treatments were arranged as a 3 × 5 × 3 factorial with three plant selections (RP6, RP7, S), five herbicides (foramsulfuron, trifloxysulfuron, imazaquin, bispyribac-sodium, non-treated) and three P450 inhibitor treatments (malathion, PBO, non-treated) in a completely randomized design with four replications and repeated in separate glasshouses during February 2015.

[2] = molecular target: T1, recombinant Arabidopsis thaliana ALS wild-type enzyme (WT—sensitive) (Arabidopsis thaliana, UniProt P17597); experiment: biochemical
T1 construct: Protein constructs contained an 85 amino acid N-terminal deletion (chloroplast transit peptide); Hexa-histidine tag (N); made in house
Experimental: (§1) Effects of SNPs identified in sequencing analysis on ALS activity were studied using A. thaliana. The ALS gene from A. thaliana and derivatives thereof were de novo synthesized and subcloned into pET-24d(+) (Life Technologies. Grand Island, NY, USA) using NcoI and XhoI restriction sites. Protein constructs contained an 85 amino acid N-terminal deletion (chloroplast transit peptide) and the addition of an N-terminal Hexa-histidine tag to facilitate purification.
(§2) Lysis was performed by at least two passes through a fluidizer, followed by centrifuging at 80000×g for 30 min at 4 °C. […] Fractions containing ALS protein were pooled and stored at −20 °C.
(§3) Inhibitors, purchased from Sigma as Pestanal standards (Sigma-Aldrich, Deisenhofen, Germany), were dissolved in DMSO and added to the reaction mixture. Inhibitors evaluated included imidazolinone, sulfonylurea, triazolopyrimidines, sulfonylamino-carbonyl- triazolinones, and pyrimidinyl (thio) benzoate herbicides. The reaction mixture was incubated at 30 °C for 60 min and stopped with 70 µl of H2SO4 (3 M). The reaction was then heated to 56 °C for 15 min to convert acetolactate into acetoin. […] For each inhibitor, resistance factors were calculated by dividing IC50 values for mutant and sensitive ALS.

[3] = test system: recombinant Arabidopsis thaliana ALS variant A205V; assay type: biochemical; conditions: IC50 mutant divided by IC50 sensitive ALS; max inhibitor concentration 1.00 × 10^−04 M
Experimental: as §1, §2, §3

[4] = test system: recombinant Arabidopsis thaliana ALS variant W574L; assay type: biochemical; conditions: IC50 mutant divided by IC50 sensitive ALS; max inhibitor concentration 1.00 × 10^−04 M
Experimental: as §1, §2, §3

[5] = test system: annual bluegrass (Poa annua L.); experiment: Whole plant non-target site resistance experiment, foramsulfuron vs sulfometuron (control and plant height 28 days after treatment); assay type: in vivo
Experimental: A second experiment was conducted to determine if non-target mechanisms could confer resistance to ALS inhibiting herbicides in our annual bluegrass population, POAAN-R3. ALS-resistant (RP1–RP8) and susceptible (S) plants were cultured in plastic conical containers under previously described glasshouse conditions for 28 days before being treated with foramsulfuron (29 g ha^−1) or sulfometuron-methyl (Oust XP; Dupont Professional Products. Wilmington, DE, USA) at 105 g ai ha^−1. Sulfometuron-methyl is an ALS inhibiting herbicide not metabolized by cytochrome P450 monooxygenases; therefore, it can be used to discern if weed populations survive ALS inhibiting herbicide treatment via target- or non-target site based mechanisms (Christopher et al. [1992]). Per label recommendations, sulfometuron-methyl included non-ionic surfactant at 0.25 % v/v. Treatments were mixed in water carrier applied in an enclosed spray chamber, as previously described, on 13 March 2015.
Annual bluegrass control was visually assessed on a 0 (i.e., no control) to 100 % (i.e., complete kill) scale relative to the non-treated 28 days after treatment. After all control data had been collected, plant height data were collected using a ruler placed at the soil surface of each plastic conical container and recording the distance to the tip of the bud leaf. Treatments were arranged as a 9 × 3 factorial with nine plant selections (RP1–RP8, S) and three herbicides (foramsulfuron, sulfometuron-methyl, non-treated) in a completely randomized design with four replications and repeated in separate glasshouses during March 2015.

T1 sequence (P17597 86-670): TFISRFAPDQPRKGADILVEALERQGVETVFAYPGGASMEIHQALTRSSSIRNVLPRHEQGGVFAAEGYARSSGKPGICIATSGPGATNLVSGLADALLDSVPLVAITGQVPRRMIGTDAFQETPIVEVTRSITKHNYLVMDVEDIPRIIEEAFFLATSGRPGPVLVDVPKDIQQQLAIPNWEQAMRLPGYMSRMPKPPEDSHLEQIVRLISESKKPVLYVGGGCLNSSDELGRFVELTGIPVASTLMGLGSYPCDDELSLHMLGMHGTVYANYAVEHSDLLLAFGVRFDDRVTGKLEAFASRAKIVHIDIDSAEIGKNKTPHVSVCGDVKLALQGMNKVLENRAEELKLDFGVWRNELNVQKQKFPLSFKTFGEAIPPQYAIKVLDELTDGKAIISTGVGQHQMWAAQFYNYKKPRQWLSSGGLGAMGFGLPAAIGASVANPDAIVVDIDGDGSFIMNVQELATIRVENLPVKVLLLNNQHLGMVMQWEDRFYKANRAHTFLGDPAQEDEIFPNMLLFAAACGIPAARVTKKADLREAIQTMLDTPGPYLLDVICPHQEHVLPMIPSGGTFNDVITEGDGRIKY

COc1cc(OC)nc(Oc2cccc(Oc3nc(OC)cc(OC)n3)c2C(=O)O)n1 [Bispyribac-sodium]
Annual bluegrass control RP6 ([1]; RP6, herbicide alone, foramsulfuron 29, trifloxysulfuron 27.8, imazaquin 27.5, bispyribac-sodium 70 g ha^−1): 28% | Annual bluegrass control RP6 ([1]; RP6, herbicide with PBO 2100 g ha^−1 applied 60 min prior): 20% | Annual bluegrass control RP6 ([1]; RP6, herbicide with malathion 1000 g ha^−1 applied 60 min prior): 32% | Annual bluegrass control RP7 ([1]; RP7, herbicide alone, foramsulfuron 29, trifloxysulfuron 27.8, imazaquin 27.5, bispyribac-sodium 70 g ha^−1): 7% | Annual bluegrass control RP7 ([1]; RP7, herbicide with PBO 2100 g ha^−1 applied 60 min prior): 14% | Annual bluegrass control RP7 ([1]; RP7, herbicide with malathion 1000 g ha^−1 applied 60 min prior): 47% | Annual bluegrass control S ([1]; herbicide alone, foramsulfuron 29, trifloxysulfuron 27.8, imazaquin 27.5, bispyribac-sodium 70 g ha^−1): 90% | Annual bluegrass control S ([1]; herbicide with PBO 2100 g ha^−1 applied 60 min prior): 86% | Annual bluegrass control S ([1]; herbicide with malathion 1000 g ha^−1 applied 60 min prior): 92%

CC(C)C1(C)N=C(c2ncccc2C(=O)O)NC1=O (stereo not drawn) [Imazapyr]
IC50 [2]: 6060 nM | Resistance factor A205V [3]: 16 | Resistance factor W574L [4]: 16

O=C(Nc1nc(OC(F)F)cc(OC(F)F)n1)NS(=O)(=O)c1ccccc1C(=O)O [Primisulfuron]
IC50 [2]: 3.14 nM | Resistance factor A205V [3]: 429 | Resistance factor W574L [4]: 5728

COc1nc(C)nc(NC(=O)NS(=O)(=O)c2ccccc2CCC(F)(F)F)n1 [Prosulfuron]
IC50 [2]: 2.88 nM | Resistance factor A205V [3]: 88 | Resistance factor W574L [4]: 3524

COc1cc(OC)n2nc(NS(=O)(=O)c3c(C(F)(F)F)ccnc3OC)nc2n1 [Pyroxulam]
IC50 ([2]; concentration for 50 % inhibition of WT enzyme, max inhibitor concentration 1.00 × 10^−04 M, read-out: WT sensitivity [IC50]): 4.12 nM | Resistance factor A205V [3]: 162 | Resistance factor W574L [4]: 24,268

COC(=O)c1ccccc1S(=O)(=O)NC(=O)Nc1nc(C)cc(C)n1 [Sulfometuron, Sulfometuron-methyl]
Annual bluegrass control RP1 ([5]; RP1, 28 days after treatment, minimum of two tillers, foramsulfuron 29, sulfometuron 105 g ha^−1): 24% | Annual bluegrass height RP1 ([5]; RP1, plant height 28 days after treatment, foramsulfuron 29, sulfometuron 105 g ha^-1, non-treated 118 mm): 76 mm | Annual bluegrass control RP2 ([5]; RP2, 28 days after treatment, minimum of two tillers, foramsulfuron 29, sulfometuron 105 g ha^−1): 29% | Annual bluegrass height RP2 ([5]; RP2, plant height 28 days after treatment, foramsulfuron 29, sulfometuron 105 g ha^-1, non-treated 129 mm): 65 mm | Annual bluegrass control RP3 ([5]; RP3, 28 days after treatment, minimum of two tillers, foramsulfuron 29, sulfometuron 105 g ha^−1): 21% | Annual bluegrass height RP3 ([5]; RP3, plant height 28 days after treatment, foramsulfuron 29, sulfometuron 105 g ha^-1, non-treated 173 mm): 78 mm | Annual bluegrass control RP4 ([5]; RP4, 28 days after treatment, minimum of two tillers, foramsulfuron 29, sulfometuron 105 g ha^−1): 21% | Annual bluegrass height RP4 ([5]; RP4, plant height 28 days after treatment, foramsulfuron 29, sulfometuron 105 g ha^-1, non-treated 140 mm): 71 mm | Annual bluegrass control RP5 ([5]; RP5, 28 days after treatment, minimum of two tillers, foramsulfuron 29, sulfometuron 105 g ha^−1): 26% | Annual bluegrass height RP5 ([5]; RP5, plant height 28 days after treatment, foramsulfuron 29, sulfometuron 105 g ha^-1, non-treated 114 mm): 68 mm | Annual bluegrass control RP6 ([5]; RP6, 28 days after treatment, minimum of two tillers, foramsulfuron 29, sulfometuron 105 g ha^−1): 76% | Annual bluegrass height RP6 ([5]; RP6, plant height 28 days after treatment, foramsulfuron 29, sulfometuron 105 g ha^-1, non-treated 106 mm): 56 mm | Annual bluegrass control RP7 ([5]; RP7, 28 days after treatment, minimum of two tillers, foramsulfuron 29, sulfometuron 105 g ha^−1): 28% | Annual bluegrass height RP7 ([5]; RP7, plant height 28 days after treatment, foramsulfuron 29, sulfometuron 105 g ha^-1, non-treated 125 mm): 69 mm | Annual bluegrass control RP8 ([5]; RP8, 28 days after treatment, minimum of two tillers, foramsulfuron 29, sulfometuron 105 g ha^−1): 21% | Annual bluegrass height RP8 ([5]; RP8, plant height 28 days after treatment, foramsulfuron 29, sulfometuron 105 g ha^-1, non-treated 132 mm): 67 mm | Annual bluegrass control S ([5]; susceptible (S), 28 days after treatment, minimum of two tillers, foramsulfuron 29, sulfometuron 105 g ha^−1): 99% | Annual bluegrass height S ([5]; susceptible (S), plant height 28 days after treatment, foramsulfuron 29, sulfometuron 105 g ha^-1, non-treated 111 mm): 9 mm
